The record followed here is paper PMC12040169 (PLOS Biology, 2025).

In general, viability refers to a read-out of living cells in per cent, often relative to untreated cells.

The data set in a line: in vitro. To be noted: human, hela cells, % viability.
Turning to `O=C(O)CCCC(=O)Nc1ccccc1C(=O)NCc1ccco1` [CBK299840], the viability at 28.5 h, 10 µM turned out to be 85.8%.

For `CCn1c2ccccc2c2cc(NC(=O)CC(C)CC(=O)O)ccc21` (centres unmarked) [CBK300031], the viability at 28.5 h, 10 µM amounted to 103%. Turning to `Cc1ccc2nc(-c3ccc(-c4ccc(C(C)C)cc4)o3)cc(C(=O)O)c2c1` [CBK300083], the viability at 28.5 h, 10 µM was 96.7%.

Consider `O=C(O)CCC(=O)Nc1cccc(NC(=O)c2ccc(Br)cc2)c1` [CBK300180], for which the viability at 28.5 h, 10 µM worked out at 84.6%. In the case of `Cn1c(SCC(=O)Nc2cccc(C(=O)O)c2)nnc1-c1ccccc1` [CBK300479], the viability at 28.5 h, 10 µM amounted to 96.1%. The result for `O=C(O)CCNC(=O)/C(=C/c1ccc(Cl)cc1)NC(=O)c1ccccc1` [CBK300484] reads 86.5%; that for `O=C(Nc1cc(Oc2cccnc2)cc([N+](=O)[O-])c1)c1sc2ccccc2c1Cl` [CBK300485], 106%; that for `O=C(Nc1nnc(COc2ccccc2)s1)c1cccc2ccccc12` [CBK300487], 97.6%. For the compound `Cn1c(=O)oc2ccc(C(=O)CSc3nnnn3-c3ccccc3)cc21` [CBK300488], the viability at 28.5 h, 10 µM was 90.1%.

Consider `CCCCOc1ccc(C(=O)N/C(=C/c2ccc(OC)cc2)C(=O)O)cc1` [CBK300490], for which the viability at 28.5 h, 10 µM came to 87.5%. Regarding `O=C(O)CCCC(=O)Nc1ccc(Cc2ccncc2)cc1` [CBK300493], the viability at 28.5 h, 10 µM was 93.1%. The result for `CCCc1ccc(-c2cc(C(=O)NCc3cccnc3)c3ccccc3n2)cc1` [CBK300494] reads 92.6%; that for `O=C(CCSc1nnnn1-c1ccc(C(=O)O)cc1)Nc1ccc(F)cc1` [CBK300497], 88.4%. As for `O=C(CC1SC(N2CCOCC2)=NC1=O)Nc1cccc(C(=O)O)c1` (centres unmarked) [CBK300498], the viability at 28.5 h, 10 µM was found to be 101%.

Regarding `Cc1cccnc1NC(=O)c1cc(O)nc2ccccc12` [CBK300499], the viability at 28.5 h, 10 µM stood at 91.6%. The result for `CCCCNC(=O)c1c(N)n(-c2ccc(C(=O)O)cc2)c2nc3ccccc3nc12` [CBK300500] reads 82.7%. The result for `CC(C)c1ccc(Cc2cnc(NC(=O)c3cc(Br)cs3)s2)cc1` [CBK300503] reads 88.7%; that for `Cn1c(COc2cccc3cccnc23)nnc1SCC(=O)O` [CBK300505], 89.4%.

As to `COc1ccc(-c2nnc(SCCC(=O)O)[nH]2)cc1` [CBK300506], the viability at 28.5 h, 10 µM stood at 93.4%. The result for `CS(=O)(=O)c1ccc(NC(=S)N2CCN(c3ccc(F)cc3)CC2)cc1` [CBK300507] reads 95.3%; that for `O=C(O)CSc1nnc(-c2ccc(S(=O)(=O)N3CCCCCC3)cc2)o1` [CBK300508], 81.9%. With `COc1ccc(C(=O)c2c(N)c(C(=O)Nc3ccccc3)c3ccccn23)cc1` [CBK300509], the viability at 28.5 h, 10 µM is 92.6%.

As to `COc1ccc(CCNC(=O)NS(=O)(=O)c2ccc(C)cc2)cc1OC` [CBK300510], the viability at 28.5 h, 10 µM was 88%. In the case of `COc1cccc(N2CCN(c3cc4n[nH]c(=O)n4cn3)CC2)c1` [CBK300511], the viability at 28.5 h, 10 µM worked out at 87.1%. The result for `Cc1cc(C)c2c(n1)sc1c(N3CCC(C(=O)O)CC3)ncnc12` [CBK300512] reads 83.1%; that for `Cc1ccc(-c2ccc(N3CCCC(C(=O)O)C3)nn2)cc1C` (centres unmarked) [CBK300513], 95.8%.

As to `CCN(CC(=O)NCc1cccnc1)S(=O)(=O)c1ccc2ccccc2c1` [CBK300514], the viability at 28.5 h, 10 µM amounted to 108%. For the compound `Cc1cc(C)c2c(N)c(C(=O)Nc3ccc(C(=O)O)cc3)sc2n1` [CBK300515], the viability at 28.5 h, 10 µM was found to be 100%. On to `Cc1ccc(S(=O)(=O)Nc2nc3ccccc3nc2Nc2ccc(C(=O)O)cc2)cc1C` [CBK300516], for which the viability at 28.5 h, 10 µM came to 91.5%. As for `O=C(Nc1ccccc1C(F)(F)F)c1ccc(-n2cnnn2)cc1` [CBK300521], the viability at 28.5 h, 10 µM was 86.8%.

As to `O=C(Nc1ncc(Cc2ccc(F)cc2)s1)c1ccc(-c2ccc(F)cc2)o1` [CBK300522], the viability at 28.5 h, 10 µM came out at 99.5%. The result for `Cc1cccc(C)c1NC(=O)Nc1ccc(F)cc1F` [CBK300526] reads 90.2%; that for `CSc1cccc(NC(=O)Nc2ccc3c(c2)OCCO3)c1` [CBK300527], 104%. The result for `CCCCc1ccc(-c2ccc(-c3cc(C(=O)O)c4cc(C)ccc4n3)o2)cc1` [CBK300528] reads 94%; that for `O=C(c1ccccc1)c1ccc2n1CCC2C(=O)Nc1ccccc1F` (centres unmarked) [CBK300530], 90.5%; that for `CC1CCc2c(C(=O)Nc3ncc(Cc4ccccc4)s3)csc2C1` (centres unmarked) [CBK300531], 94.6%. The result for `COc1cccc(Cn2c(=O)c3sccc3n(CC(=O)NCc3ccc(C)cc3)c2=O)c1` [CBK300533] reads 80.8%. For the compound `COc1ccc(CNC(=O)Cn2nc3c(SCc4ccc(Cl)cc4)nccn3c2=O)cc1` [CBK300541], the viability at 28.5 h, 10 µM was determined as 90.5%. As for `COc1ccc(-c2ccc(-c3cc(C(=O)O)c4ccccc4n3)o2)cc1` [CBK300542], the viability at 28.5 h, 10 µM was 75.5%.

For `CCc1ccc(-c2ccc(-c3cc(C(=O)O)c4cc(Br)ccc4n3)o2)cc1` [CBK300543], the viability at 28.5 h, 10 µM amounted to 90.6%. Take `CC(=O)N1CCN(c2ccc(NC(=O)C3C(C(=O)O)C3(C)C)cc2)CC1` (centres unmarked) [CBK300545]: the viability at 28.5 h, 10 µM amounted to 88.6%. `O=S(=O)(O)c1cccc2cccc(I)c12` [CBK301197N]: the viability at 28.5 h, 10 µM was determined as 89.1%. The result for `O=[N+]([O-])c1ccc(Cc2cc[n+](-c3nc4ccccc4nc3[N-]S(=O)(=O)c3ccc([N+](=O)[O-])cc3)cc2)cc1` [CBK301201] reads 84.3%. Regarding `OCCN(CC#CC(O)(c1ccccc1)c1cccc(F)c1)CCO` (centres unmarked) [CBK301210C], the viability at 28.5 h, 10 µM is 91.2%. The result for `CCc1ccc(CN2CCN(C(=O)c3ccncc3)CC2)cc1` [CBK301211G] reads 92.7%; that for `COc1cc(C(=O)N2CCN(Cc3c[nH]c4ccccc34)CC2)cc(OC)c1OC` [CBK301212G], 77.7%. The result for `Brc1ccc2c(c1)[C@H]1C=CC[C@H]1[C@@H](c1ccccc1)N2` [CBK303238] reads 89%. On to `O=c1[nH]c2c(c(=O)[nH]1)[C@H]1[C@H](O)[C@H](O)C[C@H]1[C@@H](c1ccccc1)N2` [CBK303239], for which the viability at 28.5 h, 10 µM is 88.1%.

Take `O=C(O)[C@H]1Nc2ccc(Br)cc2[C@H]2[C@H](O)[C@H](O)C[C@H]21` [CBK303242]: the viability at 28.5 h, 10 µM is 115%. Turning to `CC(C)(C)C1=CC2=NC3(CCC3)[C@@H]3C[C@@H](O)[C@@H](O)[C@@H]3N2O1` [CBK303243], the viability at 28.5 h, 10 µM was determined as 104%.

Consider `CC(C)(C)C1=CC2=NC3(CCOCC3)[C@@H]3C[C@@H](O)[C@@H](O)[C@@H]3N2O1` [CBK303244], for which the viability at 28.5 h, 10 µM was found to be 90.1%. The result for `CC(C)(C)C1=CC2=NC3(CCCC3)[C@@H]3C[C@@H](O)[C@@H](O)[C@@H]3N2O1` [CBK303245] reads 95.1%. The result for `CC(C)(C)C1=CC2=NC3(CCS(=O)(=O)CC3)[C@@H]3C[C@@H](O)[C@@H](O)[C@@H]3N2O1` [CBK303247] reads 92%. As to `Oc1nc(O)c2c(n1)NC1(CCC1)[C@@H]1C[C@@H](O)[C@@H](O)[C@H]21` [CBK303249], the viability at 28.5 h, 10 µM turned out to be 91.4%.

For `Cn1c2c(c(=O)n(C)c1=O)[C@H]1[C@H](O)[C@H](O)C[C@H]1C1(CCC1)N2` [CBK303250], the viability at 28.5 h, 10 µM came out at 93.6%.

Take `Cc1nsc2c1[C@H]1[C@H](O)[C@H](O)C[C@H]1C1(CCC1)N2` [CBK303258]: the viability at 28.5 h, 10 µM was 100%. The result for `CC(C)(C)C1=CC2=NC3(CCC3)C3C[C@@](C)(O)[C@@H](O)[C@@H]3N2O1` (some centres unmarked) [CBK303263] reads 112%.

Take `Cn1c2c(c(=O)n(C)c1=O)[C@@H]1C(C[C@](O)(COCc3ccccc3)[C@H]1O)C1(CCC1)N2` (some centres unmarked) [CBK303265]: the viability at 28.5 h, 10 µM was determined as 116%. The result for `Cc1noc2c1[C@H]1[C@H](O)[C@H](O)C[C@H]1C1(CCC1)N2` [CBK303266] reads 111%. On to `Cc1ccc(CC2CCCN(C(=O)NCc3cnn(C)c3)C2)cc1` (centres unmarked) [CBK303990], for which the viability at 28.5 h, 10 µM was 91.8%. The result for `CNS(=O)(=O)c1cccc(C(=O)N(C)Cc2ccsc2)c1` [CBK303993] reads 113%. The result for `CC1CN(Cc2cccc(CNc3ncccc3C#N)c2)CCO1` (centres unmarked) [CBK303994] reads 95.7%; that for `O=C(CN1CCn2ccnc2C1)N(Cc1ccccc1F)C1CC1` [CBK303995], 89.6%; that for `CCn1cnnc1C1CCN(C(=O)c2ccc(C)c(Cl)c2)CC1` [CBK303997], 94.9%. The result for `Cc1nnc(CN(C)C2CCN(CCCc3ccccc3)C2)n1C` (centres unmarked) [CBK304000] reads 115%; that for `N#CCCN(Cc1cccnc1)C(=O)Cc1noc2ccccc12` [CBK304001], 113%; that for `CCc1nc(CC(=O)NC(C)C(O)c2ccc(F)cc2)cs1` (centres unmarked) [CBK304003], 86.7%. Take `Cc1nc(C)n(CC2CCCN2Cc2cn3ccccc3c2C#N)n1` (centres unmarked) [CBK304006]: the viability at 28.5 h, 10 µM worked out at 91%. With `Cc1nc(C)n(CC2CCCN(Cc3cn4c(C)cccc4n3)C2)n1` (centres unmarked) [CBK304007], the viability at 28.5 h, 10 µM was 97.7%. The result for `COCCCNC(=O)CN1CCCCC1Cn1nc(C)cc1C` (centres unmarked) [CBK304009] reads 104%; that for `Cc1nc(S(=O)(=O)Cc2nccn2C)n(CC2CCCO2)c1C` (centres unmarked) [CBK304012], 87%; that for `c1ccc(C(NCc2cnc(-c3ncccn3)s2)C2CCC2)cc1` (centres unmarked) [CBK304013], 81.5%. The result for `N#CCCN(Cc1ccco1)C(=O)c1cccc(NC(=O)C2CC2)c1` [CBK304014] reads 99.5%.

With `Cc1ccn2ncc(C(=O)N3CCCCCC3c3ccco3)c2n1` (centres unmarked) [CBK304015], the viability at 28.5 h, 10 µM was found to be 111%.

On to `CCc1nc2ccccc2n1CC(=O)N(C)C(C)c1cccnc1` (centres unmarked) [CBK304017], for which the viability at 28.5 h, 10 µM is 110%. The result for `Cc1c(C(C)NCC2CCCC2O)cnn1-c1ccc(C#N)cc1` (centres unmarked) [CBK304019] reads 94.5%. The result for `CCOC(=O)C1CCCN(Cc2cc(F)cc(C(C)=O)c2O)C1` (centres unmarked) [CBK304020] reads 87.1%.
